Assay results taken from patent publication US20090069320A1, “Substituted 4-Amino-Quinazoline Compounds with Metabotropic Glutamate Receptor Regulating Activity and Uses Thereof” (Gruenenthal GmbH, priority 2006, published 2009).

The molecules below were run against T1, mGluR5 receptor (Sus scrofa, UniProt I3LUI7) (assay: [3H]-MPEP mGluR5 receptor binding assay (pig brain homogenate)). Details: 10 μM compound, 5 nM [3H]-MPEP, read-out: % Inhibition of mGluR5 Receptor (pig) [^3H]-MPEP Bond at 10 μM.
T1 construct: 450 μg of protein from brain homogenate with 5 nM ^3[H]-MPEP; from tissue; host or cells: pig brain halves without medulla, cerebellum and pons
T1 sequence (I3LUI7 19-1212): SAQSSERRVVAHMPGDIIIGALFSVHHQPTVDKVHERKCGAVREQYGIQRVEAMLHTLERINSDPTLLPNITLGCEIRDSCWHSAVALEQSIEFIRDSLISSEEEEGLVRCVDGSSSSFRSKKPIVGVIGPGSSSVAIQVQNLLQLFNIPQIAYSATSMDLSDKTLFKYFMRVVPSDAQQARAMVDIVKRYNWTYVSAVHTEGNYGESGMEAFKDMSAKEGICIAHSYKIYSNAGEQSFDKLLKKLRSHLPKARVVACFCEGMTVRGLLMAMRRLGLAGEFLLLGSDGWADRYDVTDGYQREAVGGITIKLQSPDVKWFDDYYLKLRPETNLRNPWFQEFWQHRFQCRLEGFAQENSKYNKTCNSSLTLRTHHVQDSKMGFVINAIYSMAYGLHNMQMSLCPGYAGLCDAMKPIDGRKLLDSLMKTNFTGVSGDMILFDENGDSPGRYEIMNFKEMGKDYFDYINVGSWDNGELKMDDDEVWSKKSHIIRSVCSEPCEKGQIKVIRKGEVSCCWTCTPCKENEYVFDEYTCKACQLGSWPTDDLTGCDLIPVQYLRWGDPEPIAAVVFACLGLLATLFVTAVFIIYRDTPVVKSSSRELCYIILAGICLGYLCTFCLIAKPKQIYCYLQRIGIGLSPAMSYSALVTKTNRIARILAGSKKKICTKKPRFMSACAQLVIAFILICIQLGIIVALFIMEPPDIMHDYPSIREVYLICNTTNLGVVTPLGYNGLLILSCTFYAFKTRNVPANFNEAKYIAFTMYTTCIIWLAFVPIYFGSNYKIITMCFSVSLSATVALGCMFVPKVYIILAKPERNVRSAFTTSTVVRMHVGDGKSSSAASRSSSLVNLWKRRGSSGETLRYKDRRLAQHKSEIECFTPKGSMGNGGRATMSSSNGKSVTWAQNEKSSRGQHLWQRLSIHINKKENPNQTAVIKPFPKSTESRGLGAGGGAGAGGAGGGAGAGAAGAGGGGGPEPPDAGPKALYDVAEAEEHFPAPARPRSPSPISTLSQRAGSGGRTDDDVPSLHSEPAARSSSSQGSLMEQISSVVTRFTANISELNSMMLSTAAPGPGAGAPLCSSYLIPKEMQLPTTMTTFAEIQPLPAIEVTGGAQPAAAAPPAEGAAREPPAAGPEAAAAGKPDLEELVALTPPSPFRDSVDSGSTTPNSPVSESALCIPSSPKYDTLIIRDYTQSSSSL
Description: I. Method for Determining the Inhibition of the [^3H]-MPEP Bond in the mGluR5 Receptor Binding Assay
Pig brain homogenate is produced by homogenizing (Polytron PT 3000, Kinematica AG, 10 000 rpm for 90 seconds) pig brain halves without medulla, cerebellum and pons in pH 8.0 buffer (20 mM Hepes, Sigma, order no. H3375+1 complete tablet, 100 ml, Roche Diagnostics, order no. 1836145) in the ratio of 1:20 (brain weight/volume) and differential centrifuging at 900×g and 40 000×g. In incubation batches of 250 μl in 96-well microtitre plates 450 μg of protein from brain homogenate with 5 nM ^3[H]-MPEP (Tocris, order no. R1212) (MPEP=[…]) and the compounds to be examined (10 μM in test) in buffer (as above) are respectively incubated at room temperature for 60 minutes.
The batches are then filtered using a Brandel cell harvester (Brandel, Robotic 9600) on unifilter plates with fibreglass filter mats (Perkin Elmer, order no. 6005177) and then washed with buffer (as above) 3-times each with 250 μl per sample. The filter plates are then dried for 60 mins. at 55° C. Then, 30 μL of Ultima Gold™ scintillator (Packard BioScience, order no. 6013159) are added per well and after 3 hours the samples are measured on the β-counter (MicroBeta, Perkin Elmer). The non-specific binding is determined by adding 10 μM of MPEP (Tocris, order no. 1212).

Compared with `CCCN(Cc1cccc(-c2ccc3ncnc(Nc4ccccc4)c3c2)c1)C(=O)CC#N` [Example 112, 2-cyano-N-[3-(4-phenylamino-quinazolin-6-yl)-benzyl]-N-propyl-acetamide], `CCCC(=O)N(CCC)Cc1cccc(-c2ccc3ncnc(Nc4ccccc4)c3c2)c1` [Example 115, N-[3-(4-phenylamino-quinazolin-6-yl)-benzyl]-N-propyl-butyramide] is higher in inhibition at 10 µM: 33% for the first, 50% for the second.

Compared with `CCCN(Cc1cccc(-c2ccc3ncnc(Nc4ccccc4)c3c2)c1)C(=O)c1cccs1` [Example 116, thiophene-2-carboxylic acid [3-(4-phenylamino-quinazolin-6-yl)-benzyl]-propyl-amide], `CCCN(Cc1cccc(-c2ccc3ncnc(Nc4ccccc4)c3c2)c1)C(=O)c1ccco1` [Example 120, furan-2-carboxylic acid [3-(4-phenylamino-quinazolin-6-yl)-benzyl]-propyl-amide] is higher in inhibition at 10 µM: 47% for the first, 48% for the second.

Compared with `CCCN(Cc1cccc(-c2ccc3ncnc(Nc4ccccc4)c3c2)c1)C(=O)c1cccnc1` [Example 117, N-[3-(4-phenylamino-quinazolin-6-yl)-benzyl]-N-propyl-nicotinamide], `CCCN(Cc1cccc(-c2ccc3ncnc(Nc4ccccc4)c3c2)c1)C(=O)c1ccccc1Cl` [Example 119, 2-chloro-N-[3-(4-phenylamino-quinazolin-6-yl)-benzyl]-N-propyl-benzamide] is lower in inhibition at 10 µM: 68% for the first, 52% for the second.

Compared with `O=C(c1ccccc1Br)N(Cc1cccc(-c2ccc3ncnc(N4CCCC4)c3c2)c1)C1CC1` [Example 122, 2-bromo-N-cyclopropyl-N-[3-(4-pyrrolidin-1-yl-quinazolin-6-yl)-benzyl]-benzamide], `O=C(c1ccccc1Cl)N(Cc1cccc(-c2ccc3ncnc(N4CCCC4)c3c2)c1)C1CC1` [Example 143, 2-chloro-N-cyclopropyl-N-[3-(4-pyrrolidin-1-yl-quinazolin-6-yl)-benzyl]-benzamide] is higher in inhibition at 10 µM: 37% for the first, 71% for the second.

Going from `O=C(c1cc2ccccc2cn1)N(Cc1cccc(-c2ccc3ncnc(N4CCCC4)c3c2)c1)C1CC1` [Example 125, isoquinoline-3-carboxylic acid cyclopropyl-[3-(4-pyrrolidin-1-yl-quinazolin-6-yl)-benzyl]-amide] to `O=C(c1cc2ccccc2cn1)N(Cc1cccc(-c2ccc3ncnc(NC4CC4)c3c2)c1)C1CC1` [Example 159, isoquinoline-3-carboxylic acid cyclopropyl-[3-(4-cyclopropylamino-quinazolin-6-yl)-benzyl]-amide], the inhibition at 10 µM rises from 30% to 85%.

Going from `N#CCC(=O)N(Cc1cccc(-c2ccc3ncnc(N4CCCC4)c3c2)c1)C1CC1` [Example 133, 2-cyano-N-cyclopropyl-N-[3-(4-pyrrolidin-1-yl-quinazolin-6-yl)-benzyl]-acetamide] to `O=C(COc1ccccc1)N(Cc1cccc(-c2ccc3ncnc(N4CCCC4)c3c2)c1)C1CC1` [Example 145, N-cyclopropyl-2-phenoxy-N-[3-(4-pyrrolidin-1-yl-quinazolin-6-yl)-benzyl]-acetamide], the inhibition at 10 µM rises from 50% to 53%.

Going from `Cc1ccc(C(=O)N(Cc2cccc(-c3ccc4ncnc(N5CCCC5)c4c3)c2)C2CC2)cc1` [Example 134, N-cyclopropyl-4-methyl-N-[3-(4-pyrrolidin-1-yl-quinazolin-6-yl)-benzyl]-benzamide] to `COc1ccc(C(=O)N(Cc2cccc(-c3ccc4ncnc(N5CCCC5)c4c3)c2)C2CC2)cc1` [Example 142, N-cyclopropyl-4-methoxy-N-[3-(4-pyrrolidin-1-yl-quinazolin-6-yl)-benzyl]-benzamide], the inhibition at 10 µM falls from 58% to 51%.

First: O=C(c1ccccc1C(F)(F)F)N(Cc1cccc(-c2ccc3ncnc(N4CCCC4)c3c2)c1)C1CC1 [Example 135, N-cyclopropyl-N-[3-(4-pyrrolidin-1-yl-quinazolin-6-yl)-benzyl]-2-trifluoromethyl-benzamide]
Second: O=C(c1ccccc1O)N(Cc1cccc(-c2ccc3ncnc(NC4CC4)c3c2)c1)C1CC1 [Example 156, N-cyclopropyl-N-[3-(4-cyclopropylamino-quinazolin-6-yl)-benzyl]-2-hydroxy-benzamide]
The inhibition at 10 µM of the first is lower: 32% for the first, 90% for the second.

First: CCCC(=O)N(Cc1ccccc1)Cc1cccc(-c2ccc3ncnc(NC(C)C)c3c2)c1 [Example 148, N-benzyl-N-[3-(4-isopropylamino-quinazolin-6-yl)-benzyl]-butyramide]
Second: CC(C)Nc1ncnc2ccc(-c3cccc(CN(Cc4ccccc4)C(=O)c4ccco4)c3)cc12 [Example 149, furan-2-carboxylic acid benzyl-[3-(4-isopropylamino-quinazolin-6-yl)-benzyl]-amide]
The inhibition at 10 µM of the first is higher: 40% for the first, 32% for the second.

Going from `CC(C)Nc1ncnc2ccc(-c3cccc(CN(Cc4ccccc4)C(=O)c4ccccc4Cl)c3)cc12` [Example 150, N-benzyl-2-chloro-N-[3-(4-isopropylamino-quinazolin-6-yl)-benzyl]-benzamide] to `CC(C)Nc1ncnc2ccc(-c3cccc(CN(Cc4ccccc4)C(=O)c4cccs4)c3)cc12` [Example 154, thiophene-2-carboxylic acid benzyl-[3-(4-isopropylamino-quinazolin-6-yl)-benzyl]-amide], the inhibition at 10 µM falls from 40% to 37%.

Going from `CC(C)Nc1ncnc2ccc(-c3cccc(CN(Cc4ccccc4)C(=O)c4ccncc4)c3)cc12` [Example 151, N-benzyl-N-[3-(4-isopropylamino-quinazolin-6-yl)-benzyl]-isonicotinamide] to `CC(C)Nc1ncnc2ccc(-c3cccc(CN(Cc4ccccc4)C(=O)c4cccnc4)c3)cc12` [Example 153, N-benzyl-N-[3-(4-isopropylamino-quinazolin-6-yl)-benzyl]-nicotinamide], the inhibition at 10 µM falls from 66% to 63%.

First: O=C(c1ccc(C(F)(F)F)cc1F)N(Cc1ccccc1)Cc1cccc(-c2ccc3ncnc(NC4CC4)c3c2)c1 [Example 152, N-benzyl-N-[3-(4-cyclopropylamino-quinazolin-6-yl)-benzyl]-2-fluoro-4-trifluoromethyl-benzamide]
Second: O=C(c1ccccc1Br)N(Cc1cccc(-c2ccc3ncnc(NC4CC4)c3c2)c1)C1CC1 [Example 157, 2-bromo-N-cyclopropyl-N-[3-(4-cyclopropylamino-quinazolin-6-yl)-benzyl]-benzamide]
The inhibition at 10 µM of the first is lower: 45% for the first, 90% for the second.

Going from `COc1ccc(C(=O)N(Cc2ccccc2)Cc2cccc(-c3ccc4ncnc(NC(C)C)c4c3)c2)cc1` [Example 155, N-benzyl-N-[3-(4-isopropylamino-quinazolin-6-yl)-benzyl]-4-methoxy-benzamide] to `O=C(c1ccc(Cl)cc1)N(Cc1cccc(-c2ccc3ncnc(NC4CC4)c3c2)c1)C1CC1` [Example 160, 4-chloro-N-cyclopropyl-N-[3-(4-cyclopropylamino-quinazolin-6-yl)-benzyl]-benzamide], the inhibition at 10 µM rises from 67% to 70%.

Going from `COc1ccc(C(=O)N(Cc2cccc(-c3ccc4ncnc(NC5CC5)c4c3)c2)C2CC2)cc1OC` [Example 158, N-cyclopropyl-N-[3-(4-cyclopropylamino-quinazolin-6-yl)-benzyl]-3,4-dimethoxy-benzamide] to `N#Cc1ccc(C(=O)N(Cc2cccc(-c3ccc4ncnc(NC5CC5)c4c3)c2)C2CC2)cc1` [Example 161, 4-cyano-N-cyclopropyl-N-[3-(4-cyclopropylamino-quinazolin-6-yl)-benzyl]-benzamide], the inhibition at 10 µM rises from 81% to 96%.
